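Compound exposure: 48 hours, 5 concentrations, 96-well plates. Here, GI50 denotes the concentration required for 50% inhibition of growth. TGI: total growth inhibition.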

From PubChem BioAssay (NCI) come the findings set out here.

Test systems include UACC-257 melanoma; CCRF-CEM leukemia; HOP-62 NSCLC; A549 NSCLC; MCF7 breast; IGROV1 ovarian; PC-3 prostate; COLO 205 colon; NCI-H23 lung; NCI-H226 lung.
Holding throughout (assay): growth of human tumour cells (NCI), 48 h

For `COc1cccc(Cn2c(-c3nonc3NC(C)=O)nc3ccccc32)c1`, the GI50 in the assay on UACC-257 melanoma is 5.71 µM; with CCRF-CEM leukemia, above 100 µM; in the assay on HOP-62 NSCLC, 8.53 µM; in the assay on A549 NSCLC, 5.81 µM; with MCF7 breast, 4.04 µM; in the assay with IGROV1 ovarian, 7.98 µM. The GI50 is 2.83 µM in the assay on PC-3 prostate, 3.45 µM in the assay with COLO 205 colon, 6.42 µM with NCI-H23 lung and 5.46 µM with NCI-H226 lung. The TGI in the assay with UACC-257 melanoma was 88.4 µM; with CCRF-CEM leukemia it was above 100 µM; in the assay with HOP-62 NSCLC, above 100 µM; in the assay with A549 NSCLC it was above 100 µM; in the assay with MCF7 breast it was above 100 µM; in the assay on IGROV1 ovarian, above 100 µM. Also, the TGI in the assay on PC-3 prostate, with COLO 205 colon, in the assay with NCI-H23 lung and with NCI-H226 lung was above 100 µM in each case.

Regarding `N#C/C(=C1C=C/C(=N\O)C(Cl)=C\1)c1ccccc1`, the GI50 in the assay on UACC-257 melanoma was 4.49 µM; in the assay on CCRF-CEM leukemia, 0.37 µM; with HOP-62 NSCLC, 1.91 µM; with A549 NSCLC, 3.27 µM; in the assay with MCF7 breast, 0.321 µM; in the assay with IGROV1 ovarian, 4.26 µM. Also, the GI50 in the assay on PC-3 prostate was 0.688 µM; with COLO 205 colon it was 7.52 µM; in the assay on NCI-H23 lung it was 5.61 µM; in the assay with NCI-H226 lung it was 3.13 µM. Also, the TGI with UACC-257 melanoma was 28.2 µM; with CCRF-CEM leukemia, 2.37 µM; in the assay on HOP-62 NSCLC it was 13 µM; in the assay with A549 NSCLC, above 100 µM; in the assay with MCF7 breast, 11.5 µM; in the assay with IGROV1 ovarian, 23.7 µM. For the same compound, the TGI in the assay on PC-3 prostate stood at 11.7 µM; with COLO 205 colon, 24.4 µM; in the assay with NCI-H23 lung it was 65.6 µM; with NCI-H226 lung, 12.4 µM.

As for `Cc1c(-c2nnc(-c3ccc(F)cc3)o2)nnn1-c1ccnc2c(C(F)(F)F)cccc12`, the GI50 in the assay on UACC-257 melanoma is above 100 µM; in the assay with CCRF-CEM leukemia, above 100 µM; with HOP-62 NSCLC, 24.4 µM; with A549 NSCLC, 32.3 µM; in the assay with MCF7 breast, 20.9 µM; in the assay on IGROV1 ovarian it was 23.4 µM. Also, the GI50 with PC-3 prostate is 23.1 µM; in the assay on COLO 205 colon it was 42.1 µM; in the assay on NCI-H23 lung it was 65.7 µM; with NCI-H226 lung, 67.2 µM. In addition, the TGI with UACC-257 melanoma was above 100 µM; in the assay with CCRF-CEM leukemia, above 100 µM; in the assay with HOP-62 NSCLC, 78.4 µM; with A549 NSCLC, above 100 µM; with MCF7 breast, above 100 µM; in the assay with IGROV1 ovarian, above 100 µM. Also, the TGI with PC-3 prostate, with COLO 205 colon, in the assay with NCI-H23 lung and in the assay on NCI-H226 lung was above 100 µM throughout.

With `O=C(O)CP(=O)(O)O`, the TGI in the assay with UACC-257 melanoma, in the assay with CCRF-CEM leukemia, in the assay with HOP-62 NSCLC, with A549 NSCLC, in the assay with MCF7 breast and with IGROV1 ovarian was above 100 µM throughout. The TGI in the assay with PC-3 prostate, with COLO 205 colon, in the assay on NCI-H23 lung and in the assay with NCI-H226 lung was above 100 µM in each case.

Take `COc1ccc(CCN2CCC(Nc3nc4ccccc4n3Cc3ccc(F)cc3)CC2)cc1`: the GI50 in the assay on UACC-257 melanoma is 1.67 µM; in the assay with CCRF-CEM leukemia it was 1.87 µM; in the assay on HOP-62 NSCLC it was 1.72 µM; in the assay with A549 NSCLC, 1.82 µM; in the assay with MCF7 breast, 1.41 µM; in the assay with IGROV1 ovarian, 2.01 µM. Besides, the GI50 in the assay on PC-3 prostate was 1.8 µM; with COLO 205 colon, 1.52 µM; in the assay on NCI-H23 lung, 1.69 µM; in the assay on NCI-H226 lung, 1.55 µM. For the same compound, the TGI in the assay with UACC-257 melanoma stood at 3.48 µM; with CCRF-CEM leukemia, 5.45 µM; in the assay on HOP-62 NSCLC, 3.15 µM; in the assay with A549 NSCLC, 3.75 µM; in the assay with MCF7 breast, 2.81 µM; with IGROV1 ovarian it was 4.27 µM. Further, the TGI in the assay on PC-3 prostate amounted to 5.66 µM; in the assay on COLO 205 colon, 2.98 µM; in the assay with NCI-H23 lung, 3.5 µM; in the assay with NCI-H226 lung it was 3.09 µM.

Turning to `O=C1CC[C@H](c2ccc(O)c3c2C(=O)[C@@H]2O[C@@H]2C3=O)c2cccc(O)c21`, the GI50 in the assay on UACC-257 melanoma is 2.98 µM; in the assay on CCRF-CEM leukemia, 1.05 µM; with HOP-62 NSCLC it was 3.1 µM; in the assay on A549 NSCLC, 16.4 µM; with MCF7 breast, 1.17 µM; in the assay with PC-3 prostate, 2.52 µM. The GI50 with COLO 205 colon was 1.24 µM; in the assay on NCI-H23 lung, 3.31 µM; in the assay with NCI-H226 lung, 3.21 µM. In addition, the TGI in the assay on UACC-257 melanoma turned out to be 9 µM; with CCRF-CEM leukemia, 5.76 µM; in the assay with HOP-62 NSCLC it was 11.6 µM; in the assay on A549 NSCLC, 40.9 µM; in the assay on MCF7 breast, 4.2 µM; in the assay with PC-3 prostate, 7.22 µM. Further, the TGI in the assay with COLO 205 colon amounted to 2.88 µM; with NCI-H23 lung, 20.4 µM; in the assay with NCI-H226 lung, 12.4 µM.
